The values below come from ChEMBL document CHEMBL1130664, “Syntheses and antitumor activity of cis-restricted combretastatins: 5-membered heterocyclic analogues” (Bioorg Med Chem Lett, 1998).

The target in one assay is Tubulin (Bos taurus, UniProt Q6B856+Q862L2+Q862F3). The assay can be described thus: Tubulin polymerization inhibitory activity using bovine brain tubulin. The format is functional.
Assay [1] deals with Colon 26. Description: In vitro cytotoxicity against colon 26 adenocarcinoma cell line was evaluated. The format is functional, cell-based. The following applies: Mus musculus.
Assay [2] has as its system Colon 26. Description: […] activity evaluated as tumor suppression against colon 26 murine tumor model at a dose 20 mg/kg after intravenous administration. It counts as functional, Mus musculus.
For assay [3], the system named is Colon 26. The assay can be described thus: […] activity evaluated as tumor suppression against colon 26 murine tumor model at a dose 40 mg/kg after intravenous administration. The format is functional, Mus musculus.
For assay [4], the system named is Colon 26. Description: […] activity evaluated as tumor suppression against colon 26 murine tumor model at a dose 80 mg/kg after intravenous administration. The format is functional, Mus musculus.
In assay [5] the test system is Colon 26. The assay can be described thus: […] activity evaluated as tumor suppression against colon 26 murine tumor model at a dose 160 mg/kg after intravenous administration. The format is functional, Mus musculus.
In assay [6] the test system is Colon 26. The assay can be described thus: […] activity evaluated as tumor suppression against colon 26 murine tumor model at a dose 160 mg/kg after subcutaneous administration. It counts as functional, Mus musculus.
In assay [7] the test system is Colon 26. Description: […] activity evaluated as tumor suppression against colon 26 murine tumor model at a dose 5 mg/kg after intravenous administration. The format is functional, organism-based. Details: dose 5 mg/kg. The following applies: Mus musculus.

Broadly, the IC50 is the point on the concentration scale where inhibition reaches its midpoint. Low readings indicate inhibition by little substance, high ones a need for much substance. Turning to `COc1ccc(-c2c[nH]nc2-c2cc(OC)c(OC)c(OC)c2)cc1N`, the IC50 on Tubulin came out at 3 µM; in the assay with Colon 26 [1] it was 0.0084 µM. Moreover, in the assay with Colon 26 [2], the IR turned out to be 0%.
On to `COc1ccc(-c2c([Si](C)(C)C)n[nH]c2-c2cc(OC)c(OC)c(OC)c2)cc1N`, for which the figures for the IC50 at Tubulin and in the assay on Colon 26 [1] were above 10 µM and above 3 µM, respectively.
Regarding `COc1ccc(-c2sc(N)nc2-c2cc(OC)c(OC)c(OC)c2)cc1N`, the IC50 against Tubulin stood at 1 µM; with Colon 26 [1], 0.0575 µM. In the assay with Colon 26 [3], the IR is 75%.
Take `COc1ccc(-c2sc(NN)nc2-c2cc(OC)c(OC)c(OC)c2)cc1N`: the results for the IC50 at Tubulin and with Colon 26 [1] were 3 µM and 0.0211 µM, respectively. This molecule returned an IR with Colon 26 [4] of 55%.
For the molecule `COc1ccc(-c2nnc(N)n2-c2cc(OC)c(OC)c(OC)c2)cc1N`, the values for the IC50 against Tubulin and with Colon 26 [1] were above 10 µM and above 3 µM, respectively.
As to `COc1ccc(-c2scnc2-c2cc(OC)c(OC)c(OC)c2)cc1N`, the IC50 at Tubulin amounted to 3 µM; in the assay with Colon 26 [1] it was 0.0145 µM. Also, the IR with Colon 26 [5] turned out to be 66%.
Regarding `COc1ccc(-c2nnc(O)n2-c2cc(OC)c(OC)c(OC)c2)cc1N`, the IC50 on Tubulin was above 10 µM; in the assay on Colon 26 [1], above 3 µM.
Take `COc1ccc(-c2sc(C)nc2-c2cc(OC)c(OC)c(OC)c2)cc1N`: the results for the IC50 on Tubulin and with Colon 26 [1] were 2 µM and 2.04 µM, respectively. This molecule also yielded an IR with Colon 26 [3] of 24%.
In the case of `COc1ccc(-c2nnc(C)n2-c2cc(OC)c(OC)c(OC)c2)cc1N`, the IC50 against Tubulin was above 10 µM; in the assay with Colon 26 [1], above 3 µM.
`COc1ccc(-c2nncn2-c2cc(OC)c(OC)c(OC)c2)cc1N`: the IC50 against Tubulin was found to be 4 µM; in the assay on Colon 26 [1], 0.84 µM. The molecule also registered an IR in the assay with Colon 26 [5] of 47%.
In the case of `COc1ccc(/C=C\c2cc(OC)c(OC)c(OC)c2)cc1N.Cl`, the IC50 with Colon 26 [1] is 0.0028 µM. Moreover, in the assay with Colon 26 [3], the IR is on record as 73%.
For the molecule `COc1ccc(-c2nnnn2-c2cc(OC)c(OC)c(OC)c2)cc1N`, the values for the IC50 against Tubulin and in the assay with Colon 26 [1] were 2 µM and 0.0072 µM, respectively. This molecule also had an IR in the assay on Colon 26 [6] of 89%.
Turning to CISPLATIN, the IR in the assay with Colon 26 [7] was determined as 64%.
